Laboratory results published in patent US20140323478A1, “SERINE/THREONINE KINASE INHIBITORS” (Afraxis Holdings, Inc., priority 2013, published 2014).

These compounds were tested against T1, human recombinant PAK1-KD protein (Homo sapiens, UniProt Q13153) (assay: PAK1-KD (kinase domain) IC50 Zlyte assay). Conditions: Z'-LYTE FRET peptide substrate (Ser/Thr19), 60-minute incubation at 22° C.
T1 construct: made in house; host or cells: Tini [sic] cells infected with recombinant baculovirus
T1 sequence (Q13153 270-521 limits assumed): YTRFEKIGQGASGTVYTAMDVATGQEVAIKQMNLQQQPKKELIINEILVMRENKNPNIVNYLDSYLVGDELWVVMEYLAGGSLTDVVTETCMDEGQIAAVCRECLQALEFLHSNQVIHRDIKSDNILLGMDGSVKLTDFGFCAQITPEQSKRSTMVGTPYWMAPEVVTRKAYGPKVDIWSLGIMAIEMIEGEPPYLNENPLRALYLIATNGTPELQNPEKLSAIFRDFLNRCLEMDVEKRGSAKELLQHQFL
Assay type: biochemical
Description: Determination of the activity of PAK activity of a compound of formula I was accomplished using the PAK1 inhibition assay in Biological Example 1.
PAK1-KD (Kinase Domain) IC50 Zlyte Assay Protocol
Activity of human recombinant PAK1-KD protein may be assessed in vitro by assay of the phosphorylation of a FRET peptide substrate. Catalytically active human recombinant PAK1-KD protein is obtained by purification from Tini cells infected with a human PAK1-KD recombinant baculovirus expression vector.
The activity/inhibition of PAK1-KD was estimated by measuring the phosphorylation of a FRET peptide substrate (Ser/Thr19) labeled with Coumarin and Fluorescein using Z′-LYTE™ assay (Invitrogen). The peptide substrate is a consensus sequence (KKRNRRLSVA) based on various PAK substrates reported in the scientific literature. The 10 μL assay mixtures contained 50 mM HEPES (pH 7.5), 0.01% Brij-35, 10 mM MgCl2, 1 mM EGTA, 2 μM FRET peptide substrate, and 20 pM PAK1-KD. Incubations were carried out at 22° C. in black polypropylene 384-well plates (Corning Costar). […] Following the 60-minute incubation, the assay mixtures were quenched by the addition of 5 μL of Z′-LYTE™ development reagent, and 1 hour later the emissions of coumarin (445 nm) and fluorescein (520 nm) were determined after excitation at 400 nm using an Envision plate reader (Perkin Elmer). An emission ratio (445 nm/520 nm) was determined to quantify the degree of substrate phosphorylation.
In the case of CCn1c(=O)c(-c2ccccc2S(C)(=O)=O)cc2cnc(NCCC3CCN(C)CC3)nc21 [Compound I-1, 8-Ethyl-2-((2-(1-methylpiperidin-4-yl)ethyl)amino)-6-(2-(methylsulfonyl)phenyl)pyrido[2,3-d]pyrimidin-7(8H)-one], the IC50 is reported as > 4.5 µM. Work on CCN1CCC(CCNc2ncc3cc(-c4cccc(S(C)(=O)=O)c4)c(=O)n(CC)c3n2)CC1 [Compound I-2, 8-ethyl-2-[2-(1-ethyl-4-piperidyl)ethylamino]-6-(3-methylsulfonylphenyl)pyrido[2,3-d]pyrimidin-7-one] yielded an IC50 of 1.7 µM. For CCNc1ncc2cc(-c3cccc(S(C)(=O)=O)c3)c(=O)n(CC)c2n1 [Compound I-3, 8-Ethyl-2-(ethylamino)-6-(3-methylsulfonylphenyl)pyrido[2,3-d]pyrimidin-7-one], the IC50 was > 4.5 µM. In the case of CCn1c(=O)c(-c2cccc(S(C)(=O)=O)c2)cc2cnc(NCCC3CCN(C)CC3)nc21 [Compound I-4, 8-ethyl-2-[2-(1-methyl-4-piperidyl)ethylamino]-6-(3-methylsulfonylphenyl)pyrido[2,3-d]pyrimidin-7-one], the IC50 is reported as 1.4 µM. For CCN1CCC(CCNc2ncc3cc(-c4ccccc4S(C)(=O)=O)c(=O)n(CC)c3n2)CC1 [Compound I-5, 8-ethyl-2-[2-(1-ethyl-4-piperidyl)ethylamino]-6-(2-methylsulfonylphenyl)pyrido[2,3-d]pyrimidin-7-one], the IC50 was > 4.5 µM. In the case of CCN1CCC(CCNc2ncc3cc(-c4ccc(S(C)(=O)=O)cc4)c(=O)n(CC)c3n2)CC1 [Compound I-6, 8-ethyl-2-[2-(1-ethyl-4-piperidyl)ethylamino]-6-(4-methylsulfonylphenyl)pyrido[2,3-d]pyrimidin-7-one], the IC50 is reported as > 4.5 µM. CCn1c(=O)c(-c2ccc(S(C)(=O)=O)cc2)cc2cnc(NCCC3CCN(C)CC3)nc21 [Compound I-7, 8-ethyl-2-[2-(1-methyl-4-piperidyl)ethylamino]-6-(4-methylsulfonylphenyl)pyrido[2,3-d]pyrimidin-7-one] was tested, and the IC50 was > 4.5 µM. CCn1c(=O)c(-c2ccc([S+](C)[O-])cc2)cc2cnc(NCCC3CCN(C)CC3)nc21 (centres unmarked) [Compound I-8, 8-ethyl-2-[2-(1-methyl-4-piperidyl)ethylamino]-6-(4-methylsulfinylphenyl)pyrido[2,3-d]pyrimidin-7-one] was tested, and the IC50 was > 4.5 µM. With CCn1c(=O)c(-c2ccc(S(=O)(=O)C3CC3)cc2)cc2cnc(NCCC3CCN(C)CC3)nc21 [Compound I-9, 6-(4-cyclopropylsulfonylphenyl)-8-ethyl-2-[2-(1-methyl-4-piperidyl)ethylamino]pyrido[2,3-d]pyrimidin-7-one] the IC50 was 3 µM. With CCn1c(=O)c(-c2ccc(S(C)(=O)=O)cc2)cc2cnc(N[C@H]3[C@@H]4CNC[C@@H]43)nc21 [Compound I-10, 2-[[(1R,5S)-3-azabicyclo[3.1.0]hexan-6-yl]amino]-8-ethyl-6-(4-methylsulfonylphenyl)pyrido[2,3-d]pyrimidin-7-one] the IC50 was > 4.5 µM. CCn1c(=O)c(-c2ccc(S(C)(=O)=O)nc2)cc2cnc(NCCC3CCN(C)CC3)nc21 [Compound I-11, 8-ethyl-2-[2-(1-methyl-4-piperidyl)ethylamino]-6-(6-methylsulfonyl-3-pyridyl)pyrido[2,3-d]pyrimidin-7-one] was tested, and the IC50 was 3.5 µM. Work on CCn1c(=O)c(-c2ccc([S+]([O-])C3CC3)cc2)cc2cnc(NCCC3CCN(C)CC3)nc21 (centres unmarked) [Compound I-12, 6-(4-cyclopropylsulfinylphenyl)-8-ethyl-2-[2-(1-methyl-4-piperidyl)ethylamino]pyrido[2,3-d]pyrimidin-7-one] yielded an IC50 of 0.874 µM. CCn1c(=O)c(-c2ccc(S(=O)(=O)C3CC3)cc2Cl)cc2cnc(NCCC3CCN(C)CC3)nc21 [Compound I-13, 6-(2-chloro-4-cyclopropylsulfonyl-phenyl)-8-ethyl-2-[2-(1-methyl-4-piperidyl)ethylamino]pyrido[2,3-d]pyrimidin-7-one] showed an IC50 of 0.0683 µM. Work on CCNc1ncc2cc(-c3ccc(S(C)(=O)=O)cc3Cl)c(=O)n(C[C@H]3CC[C@H](N)CC3)c2n1 [Compound I-14, 8-(((1R,4R)-4-aminocyclohexyl)methyl)-6-(2-chloro-4-(methylsulfonyl)phenyl)-2-(ethylamino)pyrido[2,3-d]pyrimidin-7(8H)-one] yielded an IC50 of 0.175 µM.
